The values that follow are results of earlier work, collected in patent publication US7682636B2 (Metaproteomics, LLC, priority 2001, dated 2010).

For one series, the system named is COX-2 over COX-1. As to conditions: reported, background.
Series [1] has as its system osteoarthritis of the knee in outpatients. The following applies: 1500 mg glucosamine sulfate per day versus 1200 mg ibuprofen.

For the compound `CC(=O)Oc1ccccc1C(=O)O` [aspirin], in the series with COX-2 over COX-1, the COX-2 specificity is 0.6.

Regarding `N[C@H]1C(O)O[C@H](CO)[C@@H](O)[C@@H]1O.O=S(=O)(O)O` (stereo partly drawn) [glucosamine, glucosamine sulfate], in series [1], the pain scores entry is “difference between the two groups turned significantly in favor of glucosamine by week eight”.

For the compound `CC(C)Cc1ccc(C(C)C(=O)O)cc1` (stereo not drawn) [ibuprofen], the pain scores result in series [1] is “pain scores decreased faster during the first two weeks in the ibuprofen patients than in the glucosamine-treated patients”.
